Measured values from patent publication US20080207705A1, “Heteroaryl-Imidazole Derivatives as Cannabinoid CB1 Receptor Antagonists” (Green Cross Corporation, priority 2007, published 2008).

molecular target: T1, rat CB-1 receptor (Rattus norvegicus, UniProt P20272); assay: rat CB-1 receptor binding protocol with [3H]CP-55940; conditions: not given
T1 construct: The tissue obtained from the brain of SD rats was homogenized; from tissue; host or cells: brain of SD rats (membrane pellet of homogenate)
T1 sequence (P20272 whole entry): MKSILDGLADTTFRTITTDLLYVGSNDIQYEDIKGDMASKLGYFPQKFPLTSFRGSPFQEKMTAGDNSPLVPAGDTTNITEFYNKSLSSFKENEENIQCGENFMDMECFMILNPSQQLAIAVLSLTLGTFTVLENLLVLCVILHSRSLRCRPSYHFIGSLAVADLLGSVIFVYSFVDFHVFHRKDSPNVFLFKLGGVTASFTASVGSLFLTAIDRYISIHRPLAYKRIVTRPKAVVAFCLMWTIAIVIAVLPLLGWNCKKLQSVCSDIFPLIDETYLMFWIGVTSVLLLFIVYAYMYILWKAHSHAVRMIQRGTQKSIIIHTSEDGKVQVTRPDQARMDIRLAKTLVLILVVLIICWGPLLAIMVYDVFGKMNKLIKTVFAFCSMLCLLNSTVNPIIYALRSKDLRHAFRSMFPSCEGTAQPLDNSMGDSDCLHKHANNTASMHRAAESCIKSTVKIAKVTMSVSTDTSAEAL

| Structure (SMILES) | IC50 |
| --- | --- |
| CCc1c(-c2nnc(C(C)(C)C)o2)nc(-c2ccc(Cl)cc2Cl)n1-c1ccc(Cl)cc1 [Example 15, 2-tert-butyl-5-(1-(4-chlorophenyl)-2-(2,4-dichlorophenyl)-5-ethyl-1H-imidazol-4-yl)-1,3,4-oxadiazole] | 18.1 nM |
| CCCC(C)c1nnc(-c2nc(-c3ccc(Cl)cc3Cl)n(-c3ccc(Cl)cc3)c2C)o1 (centres unmarked) [Example 7, 2-(1-(4-Chlorophenyl)-2-(2,4-dichlorophenyl)-5-methyl-1H-imidazol-4-yl)-5-(pentan-2-yl)-1,3,4-oxadiazole] | 14.2 nM |
| CCc1c(-c2nnc(C3(c4ccc(C)cc4)CC3)o2)nc(-c2ccc(Cl)cc2Cl)n1-c1ccc(Br)cc1 [Example 43, 2-(1-(4-Bromophenyl)-2-(2,4-dichlorophenyl)-5-ethyl-1H-imidazol-4-yl)-5-(1-p-tolylcyclopropyl)-1,3,4-oxadiazole] | 8.38 nM |
| CCc1c(-c2nnc(C3(c4ccc(OC)cc4)CC3)o2)nc(-c2ccc(Cl)cc2Cl)n1-c1ccc(Br)cc1 [Example 42, 2-(1-(4-Bromophenyl)-2-(2,4-dichlorophenyl)-5-ethyl-1H-imidazol-4-yl)-5-(1-(4-methoxyphenyl)cyclopropyl)-1,3,4-oxadiazole] | 18.6 nM |
| CCc1c(-c2nnc(C3(c4ccccc4)CC3)o2)nc(-c2ccc(Cl)cc2Cl)n1-c1ccc(Br)cc1 [Example 27, 2-(1-(4-Bromophenyl)-2-(2,4-dichlorophenyl)-5-ethyl-1H-imidazol-4-yl)-5-(1-phenylcyclopropyl)-1,3,4-oxadiazole] | 9.14 nM |

same assay, conditions: [3H]CP-55940, brain tissue of SD rats, 30 °C for 60 min; read-out: IC50

| Structure (SMILES) | IC50 |
| --- | --- |
| Cc1c(-c2nnc(C(C)c3ccccc3)s2)nc(-c2ccc(Cl)cc2Cl)n1-c1ccc(Cl)cc1 (centres unmarked) [Example 100, 2-(1-(4-Chlorophenyl)-2-(2,4-dichlorophenyl)-5-methyl-1H-imidazol-4-yl)-5-(1-phenylethyl)-1,3,4-thiadiazole] | 16.9 nM |
| Cc1c(-c2nnc(C3CCCCCC3)s2)nc(-c2ccc(Cl)cc2Cl)n1-c1ccc(Cl)cc1 [Example 94, 2-(1-(4-Chlorophenyl)-2-(2,4-dichlorophenyl)-5-methyl-1H-imidazol-4-yl)-5-cycloheptyl-1,3,4-thiadiazole] | 21.6 nM |
| Cc1c(-c2ncc(C(C)C)o2)nc(-c2ccc(Cl)cc2Cl)n1-c1ccc(Cl)cc1 [Example 183, 2-(1-(4-Chlorophenyl)-2-(2,4-dichlorophenyl)-5-methyl-1H-imidazol-4-yl)-5-isopropyloxazole] | 26.4 nM |
| FC(F)(F)C1(c2nnc(-c3nc(-c4ccccc4Cl)n(-c4ccc(Br)cc4)c3Cn3cncn3)o2)CC1 [Example 79, 2-(5-((1H-1,2,4-Triazol-1-yl)methyl)-1-(4-bromophenyl)-2-(2-chlorophenyl)-1H-imidazol-4-yl)-5-(1-(trifluoromethyl)cyclopropyl)-1,3,4-oxadiazole] | 6.91 nM |
| CCc1c(-c2nnc(C3(C(F)(F)F)CC3)o2)nc(-c2ccc(Cl)cc2Cl)n1-c1ccc(Br)cc1 [Example 49, 2-(1-(4-Bromophenyl)-2-(2,4-dichlorophenyl)-5-ethyl-1H-imidazol-4-yl)-5-(1-(trifluoromethyl)cyclopropyl)-1,3,4-oxadiazole] | 16.7 nM |
| Cc1c(-c2nnc(C3CCC3)s2)nc(-c2ccc(Cl)cc2Cl)n1-c1ccc(Cl)cc1 [Example 93, 2-(1-(4-Chlorophenyl)-2-(2,4-dichlorophenyl)-5-methyl-1H-imidazol-4-yl)-5-cyclobutyl-1,3,4-thiadiazole] | 42.3 nM |
| CC(C)(C)c1nnc(-c2nc(-c3ccc(Cl)cc3Cl)n(-c3ccc(Br)cc3)c2Cn2cncn2)o1 [Example 74, 2-(5-((1H-1,2,4-Triazol-1-yl)methyl)-1-(4-bromophenyl)-2-(2,4-dichlorophenyl)-1H-imidazol-4-yl)-5-tert-butyl-1,3,4-oxadiazole] | 5.21 nM |
| Cc1c(-c2nnc(C3(C(F)(F)F)CCC3)o2)nc(-c2ccc(Cl)cc2Cl)n1-c1ccc(Br)cc1 [Example 47, 2-(1-(4-Bromophenyl)-2-(2,4-dichlorophenyl)-5-methyl-1H-imidazol-4-yl)-5-(1-(trifluoromethyl)cyclobutyl)-1,3,4-oxadiazole] | 27.6 nM |
| CCCc1c(-c2nnc(C3(c4ccc(Cl)cc4)CCC3)s2)nc(-c2ccc(Cl)cc2Cl)n1-c1ccc(Cl)cc1 [Example 128, 2-(1-(4-Chlorophenyl)-2-(2,4-dichlorophenyl)-5-propyl-1H-imidazol-4-yl)-5-(1-(4-chlorophenyl)cyclobutyl)-1,3,4-thiadiazole] | 3.5 nM |
| CCc1c(-c2nnc(C3(c4ccc(Cl)cc4)CCC3)s2)nc(-c2ccc(Cl)cc2Cl)n1-c1ccc(Br)cc1 [Example 131, 2-(1-(4-Bromophenyl)-2-(2,4-dichlorophenyl)-5-ethyl-1H-imidazol-4-yl)-5-(1-(4-chlorophenyl)cyclobutyl)-1,3,4-thiadiazole] | 4.79 nM |
| CCc1c(-c2nnc(C3CCC3)o2)nc(-c2ccc(Cl)cc2Cl)n1-c1ccc(Br)cc1 [Example 23, 2-(1-(4-Bromophenyl)-2-(2,4-dichlorophenyl)-5-ethyl-1H-imidazol-4-yl)-5-cyclobutyl-1,3,4-oxadiazole] | 24.1 nM |
| CCCCC(C)c1nnc(-c2nc(-c3ccc(Cl)cc3Cl)n(-c3ccc(Cl)cc3)c2CC)o1 (centres unmarked) [Example 16, 2-(1-(4-Chlorophenyl)-2-(2,4-dichlorophenyl)-5-ethyl-1H-imidazol-4-yl)-5-(hexan-2-yl)-1,3,4-oxadiazole] | 11.2 nM |
| Cc1c(-c2nnc(C3(C(F)(F)F)CC3)o2)nc(-c2ccccc2Cl)n1-c1ccc(Br)cc1 [Example 52, 2-(1-(4-Bromophenyl)-2-(2-chlorophenyl)-5-methyl-1H-imidazol-4-yl)-5-(1-(trifluoromethyl)cyclopropyl)-1,3,4-oxadiazole] | 18.6 nM |
| CCCCc1cnc(-c2nc(-c3ccc(Cl)cc3Cl)n(-c3ccc(Cl)cc3)c2C)s1 [Example 195, 5-Butyl-2-(1-(4-chlorophenyl)-2-(2,4-dichlorophenyl)-5-methyl-1H-imidazol-4-yl)thiazole] | 63.3 nM |
| CCc1c(-c2nnc(C3(c4ccc(Cl)cc4Cl)CC3)s2)nc(-c2ccc(Cl)cc2Cl)n1-c1ccc(Br)cc1 [Example 134, 2-(1-(4-Bromophenyl)-2-(2,4-dichlorophenyl)-5-ethyl-1H-imidazol-4-yl)-5-(1-(2,4-dichlorophenyl)cyclopropyl)-1,3,4-thiadiazole] | 6.57 nM |
| CCc1c(-c2ncc(C(C)(C)C)o2)nc(-c2ccc(Cl)cc2Cl)n1-c1ccc(Br)cc1 [Example 188, 2-(1-(4-Bromophenyl)-2-(2,4-dichlorophenyl)-5-ethyl-1H-imidazol-4-yl)-5-tert-butyloxazole] | 8.98 nM |
| Cc1c(-c2nnc(C3(C(F)(F)F)CC3)s2)nc(-c2ccc(Cl)cc2Cl)n1-c1ccc(Br)cc1 [Example 136, 2-(1-(4-Bromophenyl)-2-(2,4-dichlorophenyl)-5-methyl-1H-imidazol-4-yl)-5-(1-(trifluoromethyl)cyclopropyl)-1,3,4-thiadiazole] | 47.1 nM |
| CCCC(C)c1nnc(-c2nc(-c3ccc(Cl)cc3Cl)n(-c3ccc(Cl)cc3)c2C)s1 (centres unmarked) [Example 96, 2-(1-(4-Chlorophenyl)-2-(2,4-dichlorophenyl)-5-methyl-1H-imidazol-4-yl)-5-(pentan-2-yl)-1,3,4-thiadiazole] | 12.7 nM |
| FC(F)(F)C1(c2nnc(-c3nc(-c4ccc(Cl)cc4Cl)n(-c4ccc(Cl)cc4)c3Cn3cncn3)o2)CC1 [Example 89, 2-(5-((1H-1,2,4-Triazol-1-yl)methyl)-1-(4-chlorophenyl)-2-(2,4-dichlorophenyl)-1H-imidazol-4-yl)-5-(1-(trifluoromethyl)cyclopropyl)-1,3,4-oxadiazole] | 1.14 nM |
| Clc1ccc(C2(c3nnc(-c4nc(-c5ccc(Cl)cc5Cl)n(-c5ccc(Br)cc5)c4Cn4cncn4)s3)CC2)cc1 [Example 167, 2-(5-((1H-1,2,4-Triazol-1-yl)methyl)-1-(4-bromophenyl)-2-(2,4-dichlorophenyl)-1H-imidazol-4-yl)-5-(1-(4-chlorophenyl)cyclopropyl)-1,3,4-thiadiazole] | 3.91 nM |
| Cc1c(-c2nnc(C(C)(C)C)s2)nc(-c2ccccc2Cl)n1-c1ccc(Br)cc1 [Example 141, 2-(1-(4-Bromophenyl)-2-(2-chlorophenyl)-5-methyl-1H-imidazol-4-yl)-5-tert-butyl-1,3,4-thiadiazole] | 10.7 nM |
| Cc1c(-c2nnc(C3(c4ccc(Cl)cc4)CC3)o2)nc(-c2ccc(Cl)cc2Cl)n1-c1ccc(Br)cc1 [Example 48, 2-(1-(4-Bromophenyl)-2-(2,4-dichlorophenyl)-5-methyl-1H-imidazol-4-yl)-5-(1-(4-chlorophenyl)cyclopropyl)-1,3,4-oxadiazole] | 18.7 nM |
| Cc1c(-c2nnc(C3CCCCC3)s2)nc(-c2ccc(Cl)cc2Cl)n1-c1ccc(Cl)cc1 [Example 91, 2-(1-(4-Chlorophenyl)-2-(2,4-dichlorophenyl)-5-methyl-1H-imidazol-4-yl)-5-cyclohexyl-1,3,4-thiadiazole] | 46 nM |
| Clc1ccc(C2(c3nnc(-c4nc(-c5ccccc5Cl)n(-c5ccc(Br)cc5)c4Cn4cncn4)s3)CC2)cc1 [Example 171, 2-(5-((1H-1,2,4-Triazol-1-yl)methyl)-1-(4-bromophenyl)-2-(2-chlorophenyl)-1H-imidazol-4-yl)-5-(1-(4-chlorophenyl)cyclopropyl)-1,3,4-thiadiazole] | 1.8 nM |
| Cc1c(-c2nnc(C3CCCCC3)o2)nc(-c2ccc(Cl)cc2Cl)n1-c1ccc(Cl)cc1 [Example 2, 2-(1-(4-Chlorophenyl)-2-(2,4-dichlorophenyl)-5-methyl-1H-imidazol-4-yl)-5-cyclohexyl-1,3,4-oxadiazole] | 115 nM |
| FC(F)(F)C1(c2nnc(-c3nc(-c4ccc(Cl)cc4Cl)n(-c4ccc(Br)cc4)c3Cn3cncn3)s2)CCC1 [Example 166, 2-(5-((1H-1,2,4-Triazol-1-yl)methyl)-1-(4-bromophenyl)-2-(2,4-dichlorophenyl)-1H-imidazol-4-yl)-5-(1-(trifluoromethyl)cyclobutyl)-1,3,4-thiadiazole] | 1.7 nM |
| CCc1c(-c2nnc(C3(c4ccccc4)CC3)s2)nc(-c2ccc(Cl)cc2Cl)n1-c1ccc(Br)cc1 [Example 117, 2-(1-(4-Bromophenyl)-2-(2,4-dichlorophenyl)-5-ethyl-1H-imidazol-4-yl)-5-(1-phenylcyclopropyl)-1,3,4-thiadiazole] | 8.29 nM |
